The subject of experiment [1] is T. cruzi intracellular amastigotes. Also noted: method as in PMID 27120069. The settings on record: treatment for 48 hours; cited from earlier work.
Experiment [2] has the same test system. Put plainly: Image-based assay of the number of T. cruzi infected cells (intracellular amastigotes in 3T3 host cells). Particulars: for IC50: highest test concentration 183 μM. Type of experiment: cell-based, Trypanosoma cruzi. On the procedure:
(§1) Parasites and host cells were maintained as outlined previously. Briefly, host 3T3 fibroblasts (ATCC, CCL-92) were grown in RPMI medium (Thermo Fisher Scientific, USA) with no phenol red, supplemented with 10% FBS (Thermo Fisher Scientific, USA) and incubated at 37°C in 5% CO2. Host cells were harvested at 70% confluency and were split every 2–3 days in 175 cm^2 flasks. 3T3 cells were cultured up to passage 7 as contact inhibition was reduced or lost at higher passages. Prior to infection with T. cruzi trypomastigotes, host cells were seeded at 1.2 x 10^6 cells in 75 cm^2 or 4 x 10^5 cells in 25 cm^2 flasks and grown for 24 hours before parasite addition. Parasites were added at a multiplicity of infection (MOI) of 10:1 and incubated for 24 hours before non-infected trypomastigotes were washed off the host cell bed with PBS supplemented with Ca^2+ and Mg^2+ (Thermo Fisher Scientific, USA). Incubation was continued for a further 3 days, until tissue culture trypomastigotes began to egress from host cells. Egressed parasites were used for assays or to continue the infective life cycle in vitro.
The activity of the nucleoside analogues against T. cruzi intracellular amastigotes following 24, 48 hours exposure and compound wash off, was determined using image-based techniques as previously described. Briefly, 14-point serial dilutions of the compounds in 100% DMSO were prepared and then further diluted in sterile water at a ratio of 1:21 compound: water. Five microliters of the diluted compounds were added to wells of T. cruzi infected host cells, using a MiniTrak compound handling device (Perkin Elmer, USA) with final concentrations in the plate ranging from 183 μM to 4.6 x 10^−4 μM. All experiments were performed with two separate biological replicates.
IC50 values for inhibitory activity of both the nucleoside analogues tested as DNA probes and known inhibitors tested to determine their effect on replication of T. cruzi were calculated in GraphPad Prism 5, using sigmoidal dose response with variable slope. […] The p-value for difference in the % activity at Emax concentrations for compounds with known activity (EdU identified parasites, compared to Hoechst identified parasites) against T. cruzi was determined using GraphPad Prism 5, using an unpaired student’s t-test. […] The Emax for each compound was at least two data points in from the beginning of the plateau of activity in the IC50 curve, as previously described.

The next experiment concerns 3T3 cells. The experiment is described as follows: Image-based assay, effect on 3T3 host cells. Format: cell-based. As to the method: as §1
[…] Briefly, 14-point serial dilutions of the compounds in 100% DMSO were prepared and then further diluted in sterile water at a ratio of 1:21 compound: water. Five microliters of the diluted compounds were added to wells of T. cruzi infected host cells, using a MiniTrak compound handling device (Perkin Elmer, USA) with final concentrations in the plate ranging from 183 μM to 4.6 x 10^−4 μM. All experiments were performed with two separate biological replicates.
Image analysis was performed with a script developed in Columbus software (CHEMICAL LABEL INCORPORATION SCRIPT). Control wells were also imaged at an increased, 60x magnification to show the distribution of staining and the structure of the parasites within host cells. Eight background control wells consisted of infected host cells, fixed and exposed to Hoechst and the click chemistry cocktail, without the addition of the chemical probe EdU. […] The percentage activity of compounds against parasite number / infected cells (identified with Hoechst) was calculated against a positive control of 12 μM of NFX for the parasite and 30 μM of PURO the host cells; and a negative control of 0.47% DMSO. All images taken were not modified and were taken on an Opera, confocal image-based reader.

The subject of the next experiment is T. cruzi amastigote DNA. Put plainly: Incorporation of pyrimidine nucleoside analogues into T. cruzi amastigote DNA (click chemistry, colocalisation with Hoechst). Format: cell-based, Trypanosoma cruzi. On the procedure: T. cruzi infected 3T3 fibroblasts were initially exposed to nucleoside analogues for 48 hours at concentrations ranging from 73 μM to 1.8 x10^-4 μM. Host cell, parasite and compound additions were carried out as previously described. Cells were then stained using a click chemistry azide cocktail, followed by Hoechst to identify nuclear material, as previously reported. The freshly prepared azide cocktail consisted of a final concentration of 5 μM of Alexa Fluor 488 azide (Thermo Fisher Scientific, USA), 1 mM copper sulfate (Sigma Aldrich, USA) and 100 mM sodium ascorbate (Sigma Aldrich, USA), in DPBS. Wells were imaged on an Opera image-based reader (Perkin Elmer, USA) at 20x magnification with 405 nm (defined as Hoechst channel) and 488 nm (defined as Alexa 488 channel) lasers using filter sets/bandwidth (emission) of 450/50 nm and 540/75 nm, respectively. To determine nucleoside analogue incorporation into T. cruzi amastigote DNA, a script was developed utilising the Columbus (PerkinElmer, USA) image-based analysis and data handling platform (CHEMICAL LABEL INCORPORATION SCRIPT). Nucleoside analogues were also tested for DNA incorporation following 2, 4 and 24 hours exposure, at the same concentrations. All experiments were performed in duplicate. The colocalisation of nucleoside analogues and Hoechst (replicating parasites) at each time point (48, 4 and 2 hours) was compared using GraphPad Prism 5.
A CHEMICAL LABEL INCORPORATION SCRIPT developed in Columbus firstly identified Hoechst stained parasites within host cells by spot analysis, utilizing the same building block analysis as we had previously developed to determine T. cruzi infected cells. The physical definition of amastigote DNA was identified by Hoechst, with the only modification being that as there was no cytoplasmic marker, thus segmentation borders in the Hoechst channel were applied, which effectively separated host cells (Fig 2). Further building blocks were added to calculate the intensity of Alexa Fluor 488 within the spots identified by Hoechst, in infected cells. This script was first applied to images to determine the mean fluorescence intensity in the Alexa 488 channel of Hoechst identified parasites, without the addition of the chemical label. The mean plus three times the standard deviation of this intensity was used to define values above background, thus the minimum intensity above background required to identify parasite DNA which successfully incorporated the chemical label. An input box was incorporated into the script, in which this minimum intensity above background was entered. Parameters of the developed script, “CHEMICAL LABEL INCORPORATION” are shown in S1 Table.
• Number of T. cruzi amastigote infected cells (≥5 parasites per cell, identified with Hoechst). • Number of Hoechst identified T. cruzi parasites (in infected cells). • Number of parasites incorporating chemical label (T. cruzi parasites with Alexa 488 intensity above background, in infected cells). • % chemical label incorporation. Alexa 488 spots in infected cells (above background) NO / Hoechst spots in infected cells NO *100 = Percentage colocalisation; where NO = number of objects. • Number of host cells.

For experiment [3], the system named is T. cruzi intracellular amastigotes. Put plainly: Image-based assay of the number of T. cruzi infected cells (intracellular amastigotes in 3T3 host cells). Format: cell-based, Trypanosoma cruzi. Particulars: 2 and 4 hour exposures; 73 μM.
A further experiment deals with HEK293 cells. The experiment is described as follows: Redox-based assay to assess HEK293 viability. Format: cell-based, human. The settings on record: 48 hours exposure; highest test concentration 87 μM; EdU value estimated, relative to Emax plateau of 57%. As to the method:
To determine the effect of the nucleoside analogues against a replicating mammalian cell line, analogues were tested against HEK293 cells, utilising a REDOX-based metabolic assay to assess cell viability as previously described. […] Experiments were performed over two biological replicates.

Where a name gives a salt, the structure may show the parent alone. Read-outs that look alike come from different tables or passages of the source. Bounds are passed on as bounds.

Regarding `CN1CCC[C@@H]1CCO[C@](C)(c1ccccc1)c1ccc(Cl)cc1` [CF, clemastine fumarate], in experiment [1], the “T. cruzi infected cells, identified with Hoechst, remaining” value is given as 3%.
Turning to `C#Cc1cn([C@H]2C[C@H](O)[C@@H](CO)O2)c(=O)nc1N` [EdC, 5-ethynyl-2′-deoxy-cytidine], the “SI (selectivity index to T. cruzi intracellular amastigotes in relation to HEK293 cells)” value in experiment [2] (48 hours exposure) is recorded as > 26. In experiment [2] (Trypanosoma cruzi, at 183 μM, 48 hours incubation, wash off, further 72 hours, read-out: T. cruzi Wash off percentage inhibition at the highest test concentration), the inhibition at 183 µM is 90%. Also, the IC50 in experiment [2] (Trypanosoma cruzi, 24 hours exposure, read-out: T. cruzi 24 IC50 value) was found to be 12.5 ± 2 µM; in experiment [2] (Trypanosoma cruzi, 48 hours incubation, read-out: T. cruzi 48 IC50 value), 7.1 ± 3.7 µM. Moreover, the Emax was 69% in experiment [2] (Trypanosoma cruzi, 24 hours exposure, read-out: T. cruzi 24 relative Emax (in brackets) (converted)) and 87% in experiment [2] (Trypanosoma cruzi, 48 hours incubation, read-out: T. cruzi 48 relative Emax (in brackets) (converted)). Besides, in the experiment on 3T3 cells (2 and 4 hour exposures, 73 μM), the “activity against host cells after short exposure” value is “less than 20%”. Moreover, the “Host cell 3T3 IC50 value 48 h” value in the experiment on 3T3 cells (48 h, highest test concentration 183 μM) is “NA (NA = ≤50% activity at the highest concentration tested and an IC50 value could not be determined)”. For the same molecule, in the experiment with 3T3 cells (48 hours), the “activity against 3T3 cells in the image-based assay” value is < 20%. The “% of parasites with incorporation” value was 71 ± 2.9% in the experiment with T. cruzi amastigote DNA (2 hours, 37 μM) and 84 ± 3.5% in the experiment on T. cruzi amastigote DNA (4 hours, 7.3 μM). For the same molecule, the “incorporation into T. cruzi DNA following 48 hours incubation (in words)” value with T. cruzi amastigote DNA (48 hours incubation) is reported as “incorporated”. The “% of cells that incorporated the DNA chemical label” value in the experiment with T. cruzi amastigote DNA (48 hours, 0.73 μM) came to 89 ± 2.7%. The “activity against T. cruzi amastigote growth after short exposure” value in experiment [3] is given as “less than 20%”. In addition, in the experiment on HEK293 cells, the “HEK293 IC50 value” was “NA (NA = ≤50% activity at the highest concentration tested and an IC50 value could not be determined)”.

Values taken from PMC7112222, “Investigation of pyrimidine nucleoside analogues as chemical probes to assess compound effects on the proliferation of Trypanosoma cruzi intracellular parasites” (PLoS Neglected Tropical Diseases, 2020).
